Entries after “also recorded” stand apart in the source; their conditions may differ.
Columns and labels:
human cancer cells = assay: Viability of human cancer cells at 72 hours post-treatment; type: cell-based; conditions: relative to the potency of ONC201; viability at 72 hours post-treatment
Procedure: A number of imipridones were prepared based on the syntheses above. Viability of human cancer cells was measured at 72 hours post-treatment with each compound.

HCT116 cells = assay: Anticancer efficacy in HCT116 cells; type: cell-based, human; conditions: HCT116, nanomolar concentrations (FIG. 8)
[1] = tested on: human colon cancer xenograft; assay: Human colon cancer xenograft-bearing mice; type: in vivo; conditions: xenograft mouse models of colorectal and breast cancer (FIG. 10)
[2] = tested on: NCI60 cancer cell line panel; assay: NCI60 cancer cell line panel; type: cell-based; conditions: NCI60 panel (FIG. 4)
leukemia cell lines = assay: Leukemia cell lines; type: cell-based; conditions: 55 leukemia cell lines (FIG. 11, 12)
[3] = tested on: normal cells (MRC5 lung fibroblasts, Hs27a bone marrow cells); assay: In vitro toxicity to normal cells; type: cell-based
[4] = tested on: integrated stress response, Akt/ERK phosphorylation; assay: Integrated stress response and Akt/ERK phosphorylation; type: cell-based; conditions: earlier time points compared to ONC201 (FIG. 9)
MV411 AML cells = assay: MV411 AML xenograft model
MV411 (AML) = assay: Cell viability of MV411 AML cells
[5] = tested on: acute myeloid leukemia (AML) cell lines; assay: AML cell lines, in vitro efficacy
MOLM14 (AML) = assay: Cell viability of MOLM14 AML cells; conditions: Homo sapiens, MOLM-14, 72 h

## O=C1C2=C(CCN(Cc3ccccc3)C2)N2CCN=C2N1Cc1ccc(C(F)(F)F)cc1 [ONC212]
Human cancer cells
  Relative Potency: A (A Indicates a potency increase of >2-fold of ONC201)
HCT116 cells
  cell death: induced cell death
[1]
  anti-cancer efficacy: oral and IP anti-cancer efficacy
[2]
  anti-cancer efficacy: demonstrated anti-cancer efficacy across various tumor types
Leukemia cell lines
  anti-cancer efficacy: more responsive to ONC212 than ONC201; also recorded: nanomolar range in 55 leukemia cell lines
[3]
  in vitro toxicity to normal cells: but not normal cells (MRC5); also recorded: non-toxic to normal cells at efficacious concentrations
[4]
  integrated stress response and Akt/ERK phosphorylation: induces the integrated stress response and inhibits Akt/ERK phosphorylation at nanomolar concentrations
MV411 AML cells; 50 mg/kg, oral weekly administration (ONC201 at similar doses)
  leukemia xenograft tumor growth: significantly reduced leukemia xenograft tumor growth
MV411 AML cells; biweekly dosing with 25 mg/kg
  leukemia xenograft tumor growth: not efficacious
MV411 AML cells; weekly/biweekly dosing with 5 mg/kg
  leukemia xenograft tumor growth: not efficacious
MV411 (AML); Homo sapiens, MV4-11, 72 h
  IC50: 10 nM
MV411 (AML); MV411, 5 nM-5 μM, 24 h (FIG. 14A)
  efficacy in AML cells resistant to cytarabine: efficacious
[5]; 250 nM, MOLM14 and MV411 AML cells, viability at 96 h
  cell viability after 8 hr exposure: robust reduction in cell viability
[5]; AML cell lines, Table 4
  potency compared to ONC201: up to 400 fold
MOLM14 (AML)
  IC50: 10 nM

Reference: patent US12102639B2, “Imipridones for gliomas” (Oncoceutics, Inc., priority 2017, dated 2024)
